We go through three compounds from paper PMC10667816, “A Cell‐Penetrant Peptide Disrupting the Transcription Factor CP2c Complexes Induces Cancer‐Specific Synthetic Lethality” (Advanced Science, 2023).

*1 amine or outer side, *2 acyl side, *3 side chain or, on linkers, in order; H or OH if unused. Where a SMILES comes first, the peptide text is derived from it. Side-chain parts run from the residue outwards. The star is where a group is joined. γGlu = O=C(O)[C@H](CCC(=O)[*:2])N[*:1]; Palmitoyl = CCCCCCCCCCCCCCCC(=O)*

For orientation: half-life means the time needed for the level to fall by half in the phase considered. Higher therefore signals slow loss.

A short description of series [1]: In vivo pharmacokinetics test. To be noted: plasma; male CD‐1 (ICR) mouse, single intravenous 5 mg kg^−1, sampled 0.033–48 h, peripheral blood, noncompartmental analysis (Phoenix WinNonlin 6.3). As to the method:
A pharmacokinetics study was conducted at WuXiAppTec., Ltd. In this study, male CD‐1 (ICR) mouse was given a single intravenous injection of 5 mg kg^−1 of ACP52CGK. Blood samples were collected prior to dosing on day 0 and at various time points, including 0.033, 0.083, 0.25, 0.5, 1, 2, 6, 12, 24, and 48 h after dosing. The data collected from these samples were used to calculate pharmacokinetic parameters using the IV‐noncompartmental analysis model 201 in Phoenix WinNonlin version 6.3.
Figure S23. Pharmacokinetics analysis of ACP52CGK
A) PK parameters of ACP52CGK in CD-1(ICR) mice, calculated using the noncompartmental analysis
model 201 of Phoenix WinNonlin version 6.3. B) Mean plasma concentration of ACP52CGK at 0.033,

Series [2] deals with murine erythroleukemia (MEL) cells. Briefly: Erythroid differentiation of MEL cells. The class given is cell-based. The conditions noted are these: HMBA‐induced MEL cells, supplementation to the culture. The protocol: Information of the cell lines is listed in Table S1 (Supporting Information), including their origin and culture conditions. All cell lines were cultured at 37 °C, 5% CO2 incubator. MDA‐MB‐231 (LM1), HepG2, Hep3B, and HCT116 cell lines were authenticated with short tandem repeat markers based on ATCC information. All cell lines tested negative for mycoplasma contamination. Transient downregulation of the gene of interest was conducted by siRNA transfection using Lipofectamine 2000 (Thermo Fisher, 11668019) according to the manufacturer's instructions. Information about siRNAs is provided in Table S2 (Supporting Information). Stable cell lines were established by transfecting cells using Effectene reagent (Qiagen, 301425), followed by selection of cell clones in the presence of 1 µg mL^−1 puromycin (Sigma–Aldrich, P8833). The establishment of cell lines was confirmed by WB or RT‐qPCR. For doxycycline‐inducible gene expression regulation, cell lines were incubated in the presence of 1 µg mL^−1 doxycycline (Sigma–Aldrich, D9891) for 2–3 days. To promote sphere formation of the cell lines, each well of the tissue culture dish was coated with 10% poly 2‐hydroxyethyl methacrylate (polyHEMA). An appropriate number of cells per well were seeded in serum‐free DMEM/F12 (HyClone, SH30023.01) supplemented with B27, 20 ng mL^−1 bFGF, and 20 ng mL^−1 EGF. For erythroid terminal differentiation experiments, differentiation was assessed by hemoglobin staining using a 0.2% (w/v) tetramethylbenzidine solution (Sigma–Aldrich, T0440) in 0.6% hydrogen peroxide, 3% acetic acid for 10 min in dark condition. Benzidine‐positive or negative cell numbers were counted under the inverted microscope BX50 (Olympus) at 200 × magnification. […] After each synchronization, cells were fixed at 4‐h intervals for 24 h with ACP52C treatment, and the cell cycle was analyzed by Propidium Iodide (PI) staining or intracellular protein was analyzed by immunofluorescence. […] This development period was repeated four times for one round, after which GI50 concentrations were re‐assessed in each resistant cell line. […]

Series [3] concerns CP2c transcriptional targets (FN1, OCT4, and SNAI2) in HepG2 cells. Briefly: RT‐qPCR transcription inhibition of CP2c targets. The class given is cell-based, human. The conditions noted are these: summary for both cell lines, 36 h after treatment; read-out: average TI50 (50% transcriptional inhibition) values of the three CP2c targets. As to the method: To quantify mRNA expression of the gene of interest, cells were harvested, and total cellular RNA was extracted using Qiazol reagent (Qiagen, 79306). Purified RNA was dissolved in Diethyl pyrocarbonate (DEPC) water. Reverse transcription was performed using a High‐Capacity cDNA reverse transcription kit (Toyobo, FSQ‐201) in the presence of 400 ng of total RNA and 10 pmol random hexamer. PCR was performed using rTaq Plus 5X PCR master mix (Elpis‐Biotech, EBT‐1319) and the SYBR green Master Mix Kit. Amplifications were performed using a Light cycler 1.5 real‐time PCR system.^[ [43] ^] The relative mRNA expression levels were determined using the 2(−ΔCt) method, with GAPDH transcript levels serving as an internal control. Errors were calculated from at least two independent experiments. Oligonucleotide primers used in RT–qPCR are listed in Table S2 (Supporting Information).

The subject of series [4] is lung cancer cells and some blood cancer cells. Briefly: MTT growth inhibition in ACP52C‐resistant cells. It counts as cell-based, human. To be noted: concentrations up to 1 mM.
Procedure: Various cell lines were treated with peptides, either alone or in combination with the CASP2 inhibitor (Ac‐VDVAD‐CHO; Enzo ALX‐260‐058‐M001) at various concentrations for 4 days. Cell viability was assessed on day 2 or day 4 using MTT (3‐(4,5‐dimethylthiazol‐2‐yl)‐2,5‐diphenyltetrazolium bromide; Sigma–Aldrich, M2128) assay. In brief, fresh cells were seeded in flat‐bottomed 96‐well tissue culture plates at appropriate concentrations for each cell line per well using complete culture medium. The cells were incubated in 100 µL of culture medium containing various concentration of chemicals or peptides at 37 °C for 0 to 96 h. A solution of MTT (5 mg mL^−1) was added to the culture medium, and the cells were further incubated at 37 °C for an additional 3 h. The MTT medium was then removed, and the formazan crystals were dissolved in DMSO (100 µL per well). The formazan concentration was measured spectrophotometrically at 490 nm using a Varioskan Flash Spectral Scanning Multimode Reader (Thermo Scientific Korea). Nonlinear regression curves for growth inhibition and GI50 values for each cell line were estimated from independent replicates using the Prism (version 6) software (GraphPad Software Inc.)

The compound `CCCCCCCCCCCCCCCC(=O)N[C@@H](CCC(=O)NCCCC[C@H](NC(=O)CNC(=O)CNC(=O)[C@@H]1CCCN1C(=O)[C@H](CCCNC(=N)N)NC(=O)[C@H](CCC(N)=O)NC(=O)[C@@H]1CCCN1C(=O)[C@H](Cc1ccc(O)cc1)NC(=O)[C@H](CC(N)=O)NC(C)=O)C(=O)NCC(=O)NCC(=O)N[C@@H](CS)C(=O)N[C@@H](CCCNC(=N)N)C(=O)NCC(=O)N[C@@H](CC(=O)O)C(=O)N[C@@H](CCCCN)C(=O)NCC(=O)N1CCC[C@H]1C(=O)N[C@@H](CC(=O)O)C(=O)N[C@@H](CS)C(N)=O)C(=O)O` [ACP52CGK] (Ac-NYPQRPGGK([γGlu-Palmitoyl])GGCRGDKGPDC-NH2) gave a half-life in series [1] of around 5.26 h. With `CC(=O)N[C@@H](CC(N)=O)C(=O)N[C@@H](Cc1ccc(O)cc1)C(=O)N1CCC[C@H]1C(=O)N[C@@H](CCC(N)=O)C(=O)N[C@@H](CCCNC(=N)N)C(=O)N1CCC[C@H]1C(=O)N[C@@H](CS)C(=O)N[C@@H](CCCNC(=N)N)C(=O)NCC(=O)N[C@@H](CC(=O)O)C(=O)N[C@@H](CCCCN)C(=O)NCC(=O)N1CCC[C@H]1C(=O)N[C@@H](CC(=O)O)C(=O)N[C@@H](CS)C(N)=O` [ACP52C] (Ac-NYPQRPCRGDKGPDC-NH2), in series [2], the “inhibition of erythroid differentiation” value is “inhibition of erythroid differentiation”. The IC50 in series [3] fell in the range of 35 to 40 µM. In series [4], the growth inhibition entry is “resistance”. With `CCOc1ccccc1C1CC(=O)Nc2cc3c(cc21)OCO3` (centres unmarked) [FQI1, Factor Quinolinone Inhibitor 1, reference compound], the “inhibition of erythroid differentiation” value in series [2] is “limited inhibitory effects on MEL cell differentiation in vitro”.
